Laboratory results taken from patent publication US20050130893A1, “Use of opioids in prevention of and recovery from a stress-induced crash in blood pressure” (priority 2003, published 2005).
Where “and” joins values, the source holds several entries; their conditions need not be identical. Equal values may be shown once.

How the values were obtained:
[1] = Change in body core temperature with injections; assay type: in vivo, rat; conditions: for Effect on body temperature, earlier work: males
heat shock = experiment: Heat shock by 1 hour exposure in incubator at 44° C, sensitivity to heat; assay type: in vivo, rat; conditions: for Sensitization to heat: male rats, pretreatment; for Protection against heat, earlier work: males
Excerpt: The present invention centers on the concept of using opioids as a protective agent against heat shock. Earlier work studied how two opioids, deltorphin D and DADLE would affect molecular stress response to heat and survival. […] The current study focused on the use of deltorphin D to protect against heat stroke by administration before, after, or before and after, heat stroke. Heat stroke is defined as a rapid rise in blood pressure followed by a crash in pressure in response to overheating.
(§1) The subjects were male and female Charles River rats. The rats were divided by sex and by treatment groups. There were four treatment groups: control saline treatment, heat shock-saline treatment, heat shock-DADLE treatment, and heat shock-deltorphin-D treatment. The rats underwent a three-day protocol, receiving injections each day and on the final day undergoing heat shock. The final treatment was given on day three of the experiment, 20 minutes before heat shock. Treatment consisted of intravenous tail injections at 1 mg/kg body weight for all groups. Heat shock was initiated by 1 hour exposure in an incubator at 44° C. The rats were sacrificed 2 hours later and alteration of molecular responses monitored by gel electrophoresis of RNA using Northern blots. DNA sequences for the molecular markers HSP70 and ubiquitin were used to probe the blots. The probes were radioactively labeled with p^32 to label the probe. When the probe “finds” its complementary sequence, it binds to it and the intensity of the signal which results is determined using Molecular Analyst software of the signals on X-ray film. The intensity of the black areas on the film is a measure of gene activity altered by treatment with the respective opioids.

HSP70 = experiment: Northern blot of HSP70 mRNA in tissues after heat shock with opioid pretreatment; assay type: in vivo, rat; conditions: heat shock 1 h 44° C
Protocol: (§2) Experiments were undertaken to study the molecular stress response after heat stress with and without opiate pretreatment in rats. Since it is know that both behavior and pain response to opiates are gender-dependent, both male and female rats were used. The animals were treated by exposure to dry heat at a colonic temperature of 44° C. The animals were sacrificed and brain, leg and heart tissue was removed. The molecular stress responses chosen were HSP 70 and ubiquitin. HSP 70 is a chaperone protein which helps repair damaged proteins, and UbB and UbC forms of ubiquitin are induced by cell damage. Messenger RNA was extracted and analyzed using Northern Blot determination of transcript intensity in saline heat shock controls versus pretreatment with DADLE, a non-specific delta opioid agonist, and deltorphin D.
as §1

HSP 70 and ubiquitin = experiment: Molecular stress response (HSP 70 and ubiquitin) after heat stress, overall; assay type: in vivo, rat; conditions: pretreatment before heat shock; drug-unique patterns
Protocol: as §2
The subjects were male and female Charles River rats. The rats were divided by sex and by treatment groups. […] The rats were sacrificed 2 hours later and alteration of molecular responses monitored by gel electrophoresis of RNA using Northern blots. […] When the probe “finds” its complementary sequence, it binds to it and the intensity of the signal which results is determined using Molecular Analyst software of the signals on X-ray film. […]

hemorrhagic shock = conditions: cited from earlier work
[2] = Change in body core temperature with injections; assay type: in vivo, rat; conditions: for Changes in Body Temperature, Temperature Day 1 / Changes in Body Temperature, Temperature Day 2: individual animals, 1 mg/kg i.v. tail injection, 1 mg/kg; for Effect on body temperature: summary of Table 3
Protocol: as §1

UbB = experiment: Northern blot of UbB mRNA in tissues after heat shock with opioid pretreatment; assay type: in vivo, rat; conditions: heat shock 1 h 44° C
Protocol: as §2, §1

UbC = experiment: Northern blot of UbC mRNA in tissues after heat shock with opioid pretreatment; assay type: in vivo, rat; conditions: heat shock 1 h 44° C
Protocol: as §2, §1

cerebral ischemia = conditions: ischemia in mammals; cited from earlier work
heat stroke = experiment: Heat stroke induced by heating blanket in ketamine-anesthetized male rats; assay type: in vivo, rat; conditions: for Body temperature at blood pressure crash (onset of heat stroke): blanket 51.5° C.
Protocol: Male rats were used in the study. The first rat weighed approximately 500 g and was anesthetized with ketamine and then wrapped in a heating blanket to raise its body temperature and induce heat stroke. The temperature and blood pressure of the anesthetized rat was monitored with a recording colonic temperature probe and a tail blood pressure cuff. When the symptoms of heat stroke were observed, 1.8 ml of 1.0 mg/ml pure deltorphin D was administered in the tail vein. The amount of deltorphin administered was based on the earlier hemorrhagic studies of Dr. Oeltgrn.
The second male rat was catherized with an arterial line two weeks previous to the next experiment to provide a means for more rapidly providing the deltorphin. The second rat weighed approximately 500 g and was anesthetized with ketamine and then wrapped in a heating blanket set at 51.5° C. to raise its body temperature and induce heat stroke. Prior to being wrapped in the heating blanket, a pre-treatment injection of 1.8 ml of 1.0 mg/ml pure deltorphin was provided through the catheter. The temperature and blood pressure of the anesthetized rat was monitored with a recording colonic temperature probe and blood pressure was monitored and recorded off of the arterial line. […] One hour later, another 1.8 ml of 1.0 mg/ml pure deltorphin was administered through the catheter. At that time, the rat was having difficulty moving.
A third male rat weighing approximately 200 g was catherized with an arterial line the day before the test. The third rat was anesthetized with ketamine and then wrapped in a heating blanket set at 51.5° C. to raise its body temperature and induce heat stroke. Prior to being wrapped in the heating blanket, a pre-treatment injection of 0.7 ml of 1.0 mg/ml pure deltorphin was provided through the catheter. The temperature and blood pressure of the anesthetized rat was monitored with a recording colonic temperature probe and blood pressure was monitored and recorded off of the arterial line. […] Fifteen minutes later, another 0.7 ml of 1.0 mg/ml pure deltorphin was administered through the catheter. The rat died approximately 75 minutes after the onset of heat stroke. […] Nonetheless, the third animal lived for 75 minutes. This survival rate is long when compared to the study reported at Chi WT, Kao TY, Lin MT. Neurosci Res. 1996 24:159-163 wherein rats in which heat stroke was induced lived only about 17 minutes after the onset of heat stroke and continuous perfusion of the animals with saline did nothing to extend their survival.

[3] = Male rats, individual animals, 1 mg/kg i.v. tail injection, 1 mg/kg
[4] = Female Brain, 1 mg/kg i.v. tail injections over 3 days, sacrificed 2 hours later
[5] = second rat, 1.8 ml of 1.0 mg/ml before heating and one hour after onset, through catheter

| Molecule | Effect on body temperature, earlier work [1] | Sensitization to heat (heat shock) | Protection against heat, earlier work (heat shock) | HSP measurement (Northern blot transcript intensity) (HSP70; [4]) | HSP measurement (Northern blot transcript intensity) (HSP70; Female Heart, 1 mg/kg i.v.) | HSP measurement (Northern blot transcript intensity) (HSP70; Female Leg, 1 mg/kg i.v.) | HSP measurement (Northern blot transcript intensity) (HSP70; Male Brain, 1 mg/kg i.v.) | HSP measurement (Northern blot transcript intensity) (HSP70; Male Heart, 1 mg/kg i.v.) | HSP measurement (Northern blot transcript intensity) (HSP70; Male Leg, 1 mg/kg i.v.) | Alteration of the molecular stress response (HSP 70 and ubiquitin) | Changes in Body Temperature, Temperature Day 1 ([2]; Female rats) | Changes in Body Temperature, Temperature Day 2 ([2]; Female rats) | Effect on body temperature [2] | UBB measurement (Northern blot transcript intensity) (UbB; [4]) | UBB measurement (Northern blot transcript intensity) (UbB; Female Heart, 1 mg/kg i.v.) | UBB measurement (Northern blot transcript intensity) (UbB; Female Leg, 1 mg/kg i.v.) | UBB measurement (Northern blot transcript intensity) (UbB; Male Brain, 1 mg/kg i.v.) | UBB measurement (Northern blot transcript intensity) (UbB; Male Heart, 1 mg/kg i.v.) | UBB measurement (Northern blot transcript intensity) (UbB; Male Leg, 1 mg/kg i.v.) | UBC measurement (Northern blot transcript intensity) (UbC; [4]) | further results |
| --- | --- | --- | --- | --- | --- | --- | --- | --- | --- | --- | --- | --- | --- | --- | --- | --- | --- | --- | --- | --- | --- |
| CC(C)C[C@@H](NC(=O)[C@H](Cc1ccccc1)NC(=O)CNC(=O)[C@@H](C)NC(=O)[C@@H](N)Cc1ccc(O)cc1)C(=O)O [DADLE, [D-Ala2-D-Leu5]enkephalin acetate (Tyr-D-Ala-Gly-Phe-D-Leu), reference compound] | did not show these effects | sensitized male rats to heat | did not show these effects | 1.295 | 0.8958 | 0.884 | 1.391 | 0.5364 | 0.3294 | significant (p<0.05) alteration of the molecular stress response | −2.4 and 0.45 and −1.85 and −0.85 | −3.45 and −1.65 and −1.45 and −0.35 | raises body temperature | 1.688 | 3.57 | 2.76 | 4.596 | 0.7754 | 0.6005 | 0.7993 | Changes in Body Temperature, Temperature Day 1 [1, 3]: 2.36 and 1.82; Changes in Body Temperature, Temperature Day 2 [1, 3]: 1.55 and 0.2; Effect on fallen mean arterial pressure (hemorrhagic shock; Summers et al. 2003): quickly reverses fallen mean arterial pressure; Survival of hemorrhagic shock (hemorrhagic shock; Summers et al. 2003): increase survival of hemorrhagic shock; UBC measurement (Northern blot transcript intensity) (UbC; Female Heart, 1 mg/kg i.v.): 0.5605; UBC measurement (Northern blot transcript intensity) (UbC; Female Leg, 1 mg/kg i.v.): 0.8995; UBC measurement (Northern blot transcript intensity) (UbC; Male Brain, 1 mg/kg i.v.): 2.356; UBC measurement (Northern blot transcript intensity) (UbC; Male Heart, 1 mg/kg i.v.): 0.5837; UBC measurement (Northern blot transcript intensity) (UbC; Male Leg, 1 mg/kg i.v.): 0.18 |
| Tyr-D-Ala-Phe-Ala-Asp-Val-Ala-Ser-Thr-Ile-Gly-Asp-Phe-Phe-His-Ser-Ile-NH2 (AFADVASTIGDFFHSI; N-terminal Tyr-D-, C-amide; printed: Ala-Phe-Ala-Asp-Val-Ala-Ser-Thr-Ile-Gly-Asp-Phe-Phe-His-Ser-Ile-) [deltorphin D, linear 17 amino acid opioid peptide synthesized on a commercial peptide synthesizer] | lowered body temperature | not | protective against heat | 0.02634 | 1.27 | 0.9001 | 1.043 | 0.3697 | 0.6697 | significant (p<0.05) alteration of the molecular stress response | −0.7 (2×) and 0.2 and −1.6 and −1.5 | −1.4 and −1.7 and −1.6 and −1.9 and −2.8 | lowers body temperature significantly | 2.844 | 2.845 | 2.803 | 2.259 | 0.5613 | 2.319 | 0.7664 | Effect on neurological deficit and cerebral infarct volume (cerebral ischemia): decreasing neurological deficit and cerebral infarct volume; Changes in Body Temperature, Temperature Day 1 ([2]; Male rats): −2.6 and −2.2 and −1.2 and −3.1; Changes in Body Temperature, Temperature Day 2 ([2]; Male rats): −2.9 and −1.4 and −0.7 and −2.2; Survival after heat stroke (heat stroke; first rat, approx. 500 g, 1.8 ml of 1.0 mg/ml in the tail vein when symptoms of heat stroke were observed): survived only a few minutes; Body temperature at blood pressure crash (onset of heat stroke) (heat stroke; second rat, approx. 500 g, pre-treatment 1.8 ml of 1.0 mg/ml through arterial catheter): 41 °C; Ability to drink seven hours after the onset of heat stroke (heat stroke; [5]): able to drink 5 ml of water out of a pipette; Ability to move two hours after the onset of heat stroke (heat stroke; [5]): able to move some on its own; Survival after heat stroke (heat stroke; [5]): alive and healthy more than four weeks after the test; Survival time after the onset of heat stroke (heat stroke; third rat, approx. 200 g, 0.7 ml of 1.0 mg/ml before heating and fifteen minutes after onset, catheter installed the day before): approximately 75 minutes; Body temperature at blood pressure crash (onset of heat stroke) (heat stroke; third rat, approx. 200 g, pre-treatment 0.7 ml of 1.0 mg/ml through arterial catheter): 41 °C; Survival relative to expected time in the absence of deltorphin administration (heat stroke; third rat, compared with about 17 minutes in Chi et al. 1996): more than four times the expected time; UBC measurement (Northern blot transcript intensity) (UbC; Female Heart, 1 mg/kg i.v.): 0.8595; UBC measurement (Northern blot transcript intensity) (UbC; Female Leg, 1 mg/kg i.v.): 0.2439; UBC measurement (Northern blot transcript intensity) (UbC; Male Brain, 1 mg/kg i.v.): 1.694; UBC measurement (Northern blot transcript intensity) (UbC; Male Heart, 1 mg/kg i.v.): 0.04345; UBC measurement (Northern blot transcript intensity) (UbC; Male Leg, 1 mg/kg i.v.): 0.1339 |
| [D-Ala2-MePhe4-Glyol]enkephalin [DAGO] |  |  |  |  |  |  |  |  |  |  |  |  |  |  |  |  |  |  |  |  | Restoration of mean arterial pressure after hemorrhage (hemorrhagic shock; bleeding non-lethal, Feuerstein et al. 1985): restore mean arterial pressure after hemorrhage |
